pEC50: −log10 of the molar value. Bridge positions count the residues as written; N and C are the ends. Square brackets hold non-standard residues; d marks the D form. Peptide text beside a SMILES is read from it. * marks the point of attachment. d(pGlu) = O=C1CC[C@H](C(=O)O)N1; Lauroyl = CCCCCCCCCCCC(=O)*; Octanoyl = CCCCCCCC(=O)*; Butyryl = CCCC(=O)*
What was measured:
MCP-1 = assay: In vitro chemotaxis (trans-well migration) v MCP-1; assay type: cell-based, human
Summary of the method: (§1)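 Human THP-1 monocytes (10^4-10^6) with agent at varying concentrations in upper trans-well chamber; IL-8 or MCP-1 in lower chamber at a migration-inducing concentration, 37° C for e.g. 4 hours. Migrated cells quantified by MTT (595 nm) against a THP-1 standard curve; cytotoxicity and non-chemokine chemoattractant controls run.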

Half-life in rat in vivo = details: for half-life: read-out: T ½ rat in vivo
IL-8 = assay: In vitro chemotaxis, inhibition v IL-8; assay type: cell-based, human; set-up: concentration or dose not given beside the values
Summary of the method: as §1

Structure (SMILES) | pEC50 (MCP-1) | half-life (Half-life in rat in vivo) [min] | T ½ rat in vivo (Half-life in rat in vivo) [min] | v IL-8 inhibition (%) (IL-8)
CCCCCCCCCCCC(=O)NCCCC[C@H](NC(C)=O)C(=O)N[C@H]1CSSC[C@@H](C(N)=O)NC(=O)[C@H](CCC(N)=O)NC(=O)[C@H]([C@@H](C)CC)NC(=O)[C@H](Cc2c[nH]c3ccccc23)NC(=O)[C@H](CCCCN)NC(=O)[C@H](CCC(N)=O)NC(=O)[C@H](CCCCN)NC(=O)[C@@H]2CCCN2C(=O)[C@H](CC(=O)O)NC(=O)[C@H](CC(C)C)NC1=O [Example 162, Ac-Lys(N/-dodecanoyl)-c(Cys-Leu-Asp-Pro-Lys-Gln-Lys-Trp-Ile-Gln-Cys)-NH2] (Ac-K(Lauroyl)CLDPKQKWIQC-NH2; disulfide 2-12) | 7.70 | 17 | – | 101.1
CC[C@H](C)[C@@H]1NC(=O)[C@H](Cc2c[nH]c3ccccc23)NC(=O)[C@H](CCCCN)NC(=O)[C@H](CCC(N)=O)NC(=O)[C@H](CCCCN)NC(=O)[C@@H]2CCCN2C(=O)[C@H](CC(=O)O)NC(=O)[C@H](CC(C)C)NC(=O)[C@@H](NC(C)=O)CSSC[C@@H](C(N)=O)NC(=O)[C@H](CCC(N)=O)NC1=O [Example 9, Ac-c(Cys-Leu-Asp-Pro-Lys-Gln-Lys-Trp-Ile-Gln-Cys)-NH2] (Ac-CLDPKQKWIQC-NH2; disulfide 1-11) | 8.70 | 5.4 | – | 102.3
CC[C@H](C)[C@@H]1NC(=O)[C@H](Cc2c[nH]c3ccccc23)NC(=O)[C@H](CCCCN)NC(=O)[C@H](CCC(N)=O)NC(=O)[C@H](CCCCN)NC(=O)[C@H]2CCCN2C(=O)[C@H](CC(=O)O)NC(=O)[C@H](CC(C)C)NC(=O)[C@@H](NC(C)=O)CSSC[C@@H](C(N)=O)NC(=O)[C@H](CCC(N)=O)NC1=O [Example 30, Ac-c(Cys-Leu-Asp-D-Pro-Lys-Gln-Lys-Trp-Ile-Gln-Cys)-NH2] (Ac-CLD[dP]KQKWIQC-NH2; disulfide 1-11) | 8.10 | < 10 | – | 99.2
CC[C@H](C)[C@@H]1NC(=O)[C@H](Cc2c[nH]c3ccccc23)NC(=O)[C@H](CCCCN)NC(=O)[C@@H](NC(C)=O)CSSC[C@@H](C(N)=O)NC(=O)[C@H](CCC(N)=O)NC1=O [Example 55, Ac-c(Cys-Lys-Trp-Ile-Gln-Cys)-NH2] (Ac-CKWIQC-NH2; disulfide 1-6) | 8.22 | 18 | 16.5 | –
CC[C@H](C)[C@@H]1NC(=O)[C@H](Cc2c[nH]c3ccccc23)NC(=O)[C@H](CCCCN)NC(=O)[C@@H](NC(=O)[C@H](CCC(N)=O)NC(=O)[C@@H](N)CCCCN)CSSC[C@@H](C(N)=O)NC(=O)[C@H](CCC(N)=O)NC1=O [Example 48, Lys-Gln-c(Cys-Lys-Trp-Ile-Gln-Cys)-NH2] (H-KQCKWIQC-NH2; disulfide 3-8) | 8.10 | < 5 | – | 91.9
CC[C@H](C)[C@@H]1NC(=O)[C@H](Cc2c[nH]c3ccccc23)NC(=O)[C@H](CCCCN)NC(=O)[C@@H](NC(=O)[C@H]2CCC(=O)N2)CSSC[C@@H](C(N)=O)NC(=O)[C@H](CCC(N)=O)NC1=O [Example 53, DpGlu-c(Cys-Lys-Trp-Ile-Gln-Cys)-NH2] ([d(pGlu)]CKWIQC-NH2; disulfide 2-7) | 8.22 | 19.4 | 23.1 | –
CC[C@H](C)[C@@H]1NC(=O)[C@H](Cc2c[nH]c3ccccc23)NC(=O)[C@H](CCCCN)NC(=O)[C@H](CCC(N)=O)NC(=O)[C@H](CCCCN)NC(=O)[C@@H]2CCCN2C(=O)[C@@H](NC(=O)[C@H](CC(=O)O)NC(=O)[C@H](CC(C)C)NC(C)=O)CSSC[C@@H](C(N)=O)NC(=O)[C@H](CCC(N)=O)NC1=O [Example 20, Ac-Leu-Asp-c(Cys-Pro-Lys-Gln-Lys-Trp-Ile-Gln-Cys)-NH2] (Ac-LDCPKQKWIQC-NH2; disulfide 3-11) | 8.10 | 2.7 | 4.7 | 93.9
CC[C@H](C)[C@@H]1NC(=O)[C@H](Cc2c[nH]c3ccccc23)NC(=O)[C@H](CCCCN)NC(=O)[C@@H](NC(=O)[C@H](CCC(N)=O)NC(C)=O)CSSC[C@@H](C(N)=O)NC(=O)[C@H](CCC(N)=O)NC1=O [Example 54, Ac-Gln-c(Cys-Lys-Trp-Ile-Gln-Cys)-NH2] (Ac-QCKWIQC-NH2; disulfide 2-7) | 8.00 | 30.3 | 20.9 | –
CC[C@H](C)[C@@H]1NC(=O)[C@H](Cc2c[nH]c3ccccc23)NC(=O)[C@@H](CCCCN)NC(=O)[C@H](CCC(N)=O)NC(=O)[C@H](CCCCN)NC(=O)[C@@H]2CCCN2C(=O)[C@H](CC(=O)O)NC(=O)[C@H](CC(C)C)NC(=O)[C@@H](NC(C)=O)CSSC[C@@H](C(N)=O)NC(=O)[C@H](CCC(N)=O)NC1=O [Example 27, Ac-c(Cys-Leu-Asp-Pro-Lys-Gln-D-Lys-Trp-Ile-Gln-Cys)-NH2] (Ac-CLDPKQ[dK]WIQC-NH2; disulfide 1-11) | 8.15 | 22.7 | – | 91.0
CC[C@H](C)[C@@H]1NC(=O)[C@H](Cc2c[nH]c3ccccc23)NC(=O)[C@H](CCCCN)NC(=O)[C@H](CCC(N)=O)NC(=O)[C@H](CCCCN)NC(=O)[C@@H](NC(=O)[C@@H]2CCCN2)CSSC[C@@H](C(N)=O)NC(=O)[C@H](CCC(N)=O)NC1=O [Example 43, Pro-c(Cys-Lys-Gln-Lys-Trp-Ile-Gln-Cys)-NH2] (H-PCKQKWIQC-NH2; disulfide 2-9) | 6.22 | – | – | 21.9
CC[C@H](C)[C@@H]1NC(=O)[C@H](Cc2c[nH]c3ccccc23)NC(=O)[C@H](CCCCN)NC(=O)[C@H](CCC(N)=O)NC(=O)[C@H](CCCCN)NC(=O)[C@@H](N)CSSC[C@@H](C(N)=O)NC(=O)[C@H](CCC(N)=O)NC1=O [Example 49, c(Cys-Lys-Gln-Lys-Trp-Ile-Gln-Cys)-NH2] (H-CKQKWIQC-NH2; disulfide 1-8) | 7.00 | – | – | 72.6
CCCCCCCC(=O)NCCCC[C@H](NC(=O)[C@H]1CSSC[C@@H](N)C(=O)N[C@H](CCC(N)=O)C(=O)N[C@H]([C@H](C)CC)C(=O)N[C@H](Cc2c[nH]c3ccccc23)C(=O)N[C@H](CCCCN)C(=O)N[C@H](CCC(N)=O)C(=O)N[C@H](CCCCN)C(=O)N2CCC[C@@H]2C(=O)N[C@H](CC(=O)O)C(=O)N[C@H](CC(C)C)C(=O)N1)C(=O)O [Example 149, c(D-Cys-D-Gln-D-Ile-D-Trp-D-Lys-D-Gln-D-Lys-D-Pro-D-Asp-D-Leu-D-Cys)-Lys(Nε-octanoyl)-OH] (H-[dC][dQ][dI][dW][dK][dQ][dK][dP][dD][dL][dC]K(Octanoyl)-OH; disulfide 1-11) | 7.18 | – | – | 106.2

Now from value to compound, other results behind:

pEC50 (MCP-1) | half-life (Half-life in rat in vivo) [min] | T ½ rat in vivo (Half-life in rat in vivo) [min] | Structure (SMILES) | v IL-8 inhibition (%) (IL-8)
8.30 | 30 | – | CCCC(=O)N[C@@H]1CSSC[C@H](C(N)=O)NC(=O)[C@@H](CCCCN)NC(=O)[C@@H](Cc2c[nH]c3ccccc23)NC(=O)[C@@H]([C@H](C)CC)NC(=O)[C@@H](CCC(N)=O)NC1=O [Example 191, nButyryl-c(D-Cys-D-Gln-D-Ile-D-Trp-D-Lys-D-Cys)-NH2] (Butyryl-[dC][dQ][dI][dW][dK][dC]-NH2; disulfide 1-6) | –
< 6.00 | 5 | – | CCCCCCCCCCCC(=O)NCCCC[C@H](N)C(=O)N[C@@H](CC(=O)O)C(=O)N[C@H]1CSSC[C@@H](C(N)=O)NC(=O)[C@H](CCC(N)=O)NC(=O)[C@H]([C@@H](C)CC)NC(=O)[C@H](Cc2c[nH]c3ccccc23)NC(=O)[C@H](CCCCN)NC(=O)[C@H](CCC(N)=O)NC(=O)[C@H](CCCCN)NC(=O)[C@@H]2CCCN2C(=O)[C@H](CC(=O)O)NC(=O)[C@H](CC(C)C)NC1=O [Example 170, Lys(Nε-dodecanoyl)-Asp-c(Cys-Leu-Asp-Pro-Lys-Gln-Lys-Trp-Ile-Gln-Cys)-NH2] (H-K(Lauroyl)DCLDPKQKWIQC-NH2; disulfide 3-13) | −5.1
8.40 | 14 | – | CC[C@H](C)[C@@H]1NC(=O)[C@H](Cc2c[nH]c3ccccc23)NC(=O)[C@H](CCCCN)NC(=O)[C@@H](CCC(N)=O)NC(=O)[C@H](CCCCN)NC(=O)[C@@H]2CCCN2C(=O)[C@H](CC(=O)O)NC(=O)[C@H](CC(C)C)NC(=O)[C@@H](NC(C)=O)CSSC[C@@H](C(N)=O)NC(=O)[C@H](CCC(N)=O)NC1=O [Example 28, Ac-c(Cys-Leu-Asp-Pro-Lys-D-Gln-Lys-Trp-Ile-Gln-Cys)-NH2] (Ac-CLDPK[dQ]KWIQC-NH2; disulfide 1-11) | 96.9
8.22 | 39 | – | CCCCCCCC(=O)NCCCC[C@H](NC(=O)[C@H](CC(=O)O)NC(=O)[C@H]1CSSC[C@@H](N)C(=O)N[C@H](CCC(N)=O)C(=O)N[C@H]([C@H](C)CC)C(=O)N[C@H](Cc2c[nH]c3ccccc23)C(=O)N[C@H](CCCCN)C(=O)N[C@H](CCC(N)=O)C(=O)N[C@H](CCCCN)C(=O)N2CCC[C@@H]2C(=O)N[C@H](CC(=O)O)C(=O)N[C@H](CC(C)C)C(=O)N1)C(=O)O [Example 148, c(D-Cys-D-Gln-D-Ile-D-Trp-D-Lys-D-Gln-D-Lys-D-Pro-D-Asp-D-Leu-D-Cys)-Asp-Lys(Nε-octanoyl)-OH] (H-[dC][dQ][dI][dW][dK][dQ][dK][dP][dD][dL][dC]DK(Octanoyl)-OH; disulfide 1-11) | 100.9
8.15 | 22 | – | CC[C@H](C)[C@@H]1NC(=O)[C@H](Cc2c[nH]c3ccccc23)NC(=O)[C@H](CCCCN)NC(=O)[C@H](CCC(N)=O)NC(=O)[C@H](CCCCN)NC(=O)[C@@H](NC(=O)[C@@H]2CCCN2C(=O)[C@H](CC(=O)O)NC(=O)[C@H](CC(C)C)NC(C)=O)CSSC[C@@H](C(N)=O)NC(=O)[C@H](CCC(N)=O)NC1=O [Example 21, Ac-Leu-Asp-Pro-c(Cys-Lys-Gln-Lys-Trp-Ile-Gln-Cys)-NH2] (Ac-LDPCKQKWIQC-NH2; disulfide 4-11) | 96.3

From patent US20110038885A1, “CHEMOKINE ANALOGS” (priority 2007, published 2011)
